Laboratory results reported in a melting point compilation (Tetko et al.; mined from patent text by program, amines drawn as free bases though some values may be those of a salt).

Compound	melting point
O=C(O)CCCc1c(-c2ccc(F)cc2)[nH]c2ccc(-c3ccc(O)cc3)cc12	180 to 183 °C
COc1ccc(N)c2c1oc1ccccc12	167 to 169 °C
CCCCCCCN(O)C(=O)N(C)C	30 to 31 °C
Cc1[nH]cc(C(N)=O)c(=O)c1I	296 to 298 °C
Clc1ncccc1OCCOc1ccccc1	77 to 78 °C
CCOP(=O)(OCC)C(C)(C)NC(=O)c1cccc([N+](=O)[O-])c1	95 to 96 °C
CCOC(=O)C=Cc1ccc(C#N)cc1	71 °C
Cc1cc(-n2ccnc2)c2cccc(OCc3c(Cl)ccc(S(=O)(=O)N4CCC[C@H]4C(=O)NCCCNC(=O)c4ccc(C=NN)cc4)c3Cl)c2n1	148 °C
CC(=O)Nc1snc(C)c1[N+](=O)[O-]	210 °C
Cc1cc(O)c(C23CC4CC(CC(C4)C2)C3)cc1-c1cccc(C=C2SC(N3CCOCC3)=NC2=O)c1	327 to 329 °C
O=[N+]([O-])c1ccc(Oc2ccc(C(F)(F)F)cc2Cl)nc1O	87 to 93 °C
CC(C)(C)C(Cl)=NNc1cc(Cl)c(Cl)cc1[N+](=O)[O-]	99 to 100 °C
OC(c1ccccc1)c1cc2ccncc2[nH]1 (centres undefined)	178 to 180 °C
Oc1nnc2ccccc2n1	204 to 206 °C
CCOC(=O)OC1=C([C@H]2CC[C@H](c3ccc(Cl)cc3)CC2)C(=O)c2ccccc2C1=O	145 to 149 °C
O=C(O)CC1(CCCCCCCCCCC2(C(=O)O)CC2)CCC1	62 to 63.9 °C
CC(C)(C)NS(=O)(=O)c1cccs1	80 to 82 °C
Cn1c(=O)c(NC(=O)Nc2ccc(F)cc2F)c(-c2ccccc2)c2cc(Cl)ccc21	204 to 206 °C
CN(C)CCCn1c(-c2ccccc2)cc2ccccc21	52 °C
O=C(Cc1cccc2ccccc12)NCc1cccc2c1C(=O)N(C1CCC(=O)NC1=O)C2=O (centres undefined)	187 to 189 °C
O=C(O)CN1CCN2c3ccccc3Cc3ccccc3C2C1 (centres undefined)	162 to 163 °C
O=C(O)CCCC(=O)N[C@@H](Cc1ccc(-c2ccccc2)cc1)C(=O)NCCCCNc1ncccn1	228 °C
NC(=O)[C@H](NCc1ccccc1)[C@@H]1CSC(=O)N1Cc1ccccc1	194 to 195 °C
COc1ccc(Cl)c([N+](=O)[O-])c1Cl	97 to 99 °C
COc1cc(C(C)(C)C(N)=O)cc2c1OC(C)(C)C2	112 to 113 °C

Compound	melting point
Cc1nc2ccccc2n1Cc1ccc(C(=O)N(C)C2CCNCC2)cc1	196 to 198 °C
CCn1cc(C(=O)O)c(=O)c2cc(F)c(-c3ccnc(CN)n3)c(F)c21	285 to 289 °C
Cn1ncc(CCC(=O)O)c1-c1ccc(Cl)cc1	138 to 140 °C
CC(=O)c1c(C)[nH]c(-c2ccccc2)c1N(C)C	153 to 155 °C
O=C(O)/C=C/c1ccc(N2CCC(=O)CC2)cc1	215 °C
CCCc1nc2c(N)nc3cc(Br)ccc3c2s1	160 to 163 °C
CC(=O)OCC1OC(n2c(Br)nc3cc(Cl)c(Cl)cc32)C(O)C1O (centres undefined)	85 to 95 °C
COc1cc(Br)c(OC)c(C=O)c1	62 to 64 °C
Brc1cncc2nc(SCc3ccccc3)nn12	94 to 95 °C
Cc1ccc(NC(=O)c2ccc(C(=O)Nc3ccccc3NC(=O)OC(C)(C)C)s2)cc1Nc1nc(-c2cccnc2)cs1	218 °C
O=c1c(OCCCCl)c(-c2ccc(OCc3ccccc3)c(OCc3ccccc3)c2)oc2cc(OCc3ccccc3)ccc12	136 to 137 °C
Cc1ccccc1NC(=O)Nc1ccc(CC(=O)NC2(c3cc(CCC(=O)O)on3)CCCC2)cc1	195 to 197 °C
CN(C)c1ccc(NS(=O)(=O)c2cccc(Br)c2)cc1	187 to 189 °C
CC(C)n1nc(-c2nc(C#N)c(C#N)nc2-c2ccccc2)ccc1=O	201 to 202 °C
CCNc1nc(N2CCN(Cc3ccccc3)CC2)ncc1C(=O)O	158 to 160 °C
COc1ccc(C(=O)CC(C)C)c(Cl)c1Cl	49 to 54 °C
O=C1COCC(c2ccc(F)c(F)c2)N1C(=O)NCCCN1CCC(O)(c2ccccc2)CC1 (centres undefined)	85 to 88 °C
CCCC(=O)c1ccnc(Cl)c1NC(=O)c1ccccc1F	142 °C
NC(=O)CCCCCOc1ccc(C#Cc2ccc(C(=O)O)cc2)cc1C12CC3CC(CC(C3)C1)C2	269 to 270 °C
CNC(=NCCSCc1cc(OC)ccn1)NC#N	121 to 122 °C
COc1cccc(C(=NO)c2sccc2Br)c1	100 to 103 °C
Cc1cc(C)cc(S(=O)(=O)c2ccc(N)cc2)c1	178 to 179 °C
COC(=O)C1(NC(C)=O)CCc2cc(OC)ccc2C1 (centres undefined)	153 to 154 °C
COC(C(N)=O)C(=O)O (centres undefined)	128 to 130 °C
CC1=C(C(=O)OCCOc2ccc(C(=O)c3ccccc3)c(O)c2)CC(C(=O)OCCOc2ccc(C(=O)c3ccccc3)c(O)c2)=C(C)N1	188 °C

Compound	melting point
Nc1ccc(CC(=O)Nc2ccc(Nc3ccccc3)cc2)cc1	162 to 163 °C
CCS(=O)(=O)c1ccccc1S(N)(=O)=O	179 to 181 °C
N#Cc1ccc(Cn2nc(-c3ccccc3O)nc2-c2ccccc2O)cc1	147 to 149 °C
CN(C)c1ccc(-c2nc(Cl)c(CC#N)n2Cc2ccccc2)cc1Cl	142 to 143 °C
CC(C)(C)OC(=O)CN(C(=O)CN1C(=O)c2ccccc2C1=O)c1ccccc1-c1ccccc1	145 °C
CC(=O)N(CCCn1cncn1)C1=Nc2cccc3cccc1c23	128 to 129 °C
O=C1Nc2ccc(Br)cc2C1c1ncnc2c1cnn2C1CCCC1 (centres undefined)	287 to 290 °C
O=C(O)Cc1cc(C(=O)c2cc(Cl)ccc2Cl)ccc1O	149 °C
COC(=O)[C@H](c1ccccc1Cl)N1CCc2sc(OC(=O)C=Cc3ccccc3)cc2C1	122 to 124 °C
COCCOC(=O)C1=C(C)Nc2cc[nH]c(=O)c2C1c1ccccc1[N+](=O)[O-] (centres undefined)	265 °C
CCc1oc(C(O)(C(F)(F)F)C(F)(F)F)nc1-c1ccc(S(C)(=O)=O)cc1	92 to 93 °C
Nc1[nH]ncc1-c1cccc(N2CCOCC2)c1	166 to 168 °C
CC1(C)CON(Cc2ccc(N)cc2Br)C1=O	109 to 111 °C
CSCCOC(=O)N(C)c1nnc(-c2cncc(F)c2)s1	104 to 106 °C
CC(C)(O)C(O)c1ccc(C(=O)CCC(=O)/C(=C/C2CCOCC2)c2ccc(S(=O)(=O)C3CC3)cc2)nc1 (centres undefined)	102 to 104 °C
O=C(O)C[C@H](NC(=O)/C=C/C(=O)c1ccccc1)C(=O)O	154 to 156 °C
O=C(O)CCn1cc(Cc2cccnc2)c2cc(NS(=O)(=O)c3ccc(F)cc3)ccc21	214 to 215 °C
COc1nc(C(C)(C)O)cnc1NS(=O)(=O)c1cccc(Cl)c1Cl	192 to 193 °C
Cc1nc2cccc(C(F)(F)F)c2c(=O)n1C1CCC(=O)NC1=O (centres undefined)	268 to 270 °C
O=C(Nc1ccc(CN2C(=O)[C@H]3CCC[C@H]3N(C(=O)CN3C(=O)c4ccccc4C3=O)c3ccccc32)cc1)c1ccc(Cl)cc1 (relative stereo)	191 to 194 °C
COCOc1cc(Cl)ccc1-c1cc(-c2cccc([N+](=O)[O-])c2)c(C#N)c(NC(=O)c2ccco2)n1	154 to 155 °C
O=C1N(Cc2ccc(N3CCOCC3)cn2)c2ccccc2C12COc1cc3c(cc12)OCCO3 (centres undefined)	204 to 206 °C
O=C1NC(=O)C(Cc2ccc(OCc3nc4ncccc4[nH]3)cc2)S1 (centres undefined)	247 to 248 °C
Cc1ccc([N+](=O)[O-])cc1Nc1cc(-c2cccnc2)ccn1	170 to 173 °C
CCCN(Cc1ccc(-c2ccccc2-c2nnn[nH]2)cc1)c1nc(C)cnc1C(=O)OCC	172 to 174 °C

Compound	melting point
Cc1ccc(Cl)c(Nc2ccccc2-c2nnc(NC#N)o2)c1Cl	> 215 °C
CC(=O)Oc1cccc(-c2c3ccccc3c(Br)c3sc4ccccc4c23)c1	74 to 76 °C
N#Cc1c(-c2ccc(Cl)c(Cl)c2)[nH]c(C(F)(F)F)c1C(F)(F)F	205 to 208 °C
CCc1cccnc1NC(=O)OC(C)(C)C	101 to 102 °C
Cc1ccc(CCCO)c(NCc2ccc3nc(NCCCN4CCOCC4)n(Cc4nc(C)c(C)nc4C)c3c2)c1	120 °C
CC(C)CCN1C(=O)C(N)C(=O)N(CC23CC4CC(CC(C4)C2)C3)c2ccccc21 (centres undefined)	218 to 219 °C
COc1c(C)c(N2CCN(c3ccc4c(c3)OC(F)(F)O4)CC2)c(C)c2c1OC(C)(C)C2	149 to 151 °C
CCOC(=O)c1cn(C)c2nc3cc(N4CC(N(C)C)C4)c(F)cc3cc2c1=O	224 °C
O=C(C(Cl)Cl)N1CCCCCC1	56 °C
COc1cc(OC)cc(C(C)CCCc2ccncc2)c1 (centres undefined)	131 to 133 °C
O=[N+]([O-])CC(SC(=S)N1CCCCC1)c1ccccc1 (centres undefined)	86 to 90.5 °C
CC(=O)Oc1ccccc1C(=O)NC1CCN(CCCOc2ccccc2C#N)CC1	80 to 82 °C
Cc1cccc2nc(Cn3cnc4c(N)ncnc43)n(-c3ccccc3C(C)C)c(=O)c12	258 °C
CN1C(=O)C(NC(=O)Oc2ccc([N+](=O)[O-])cc2)N=C(c2ccccc2F)c2ccccc21 (centres undefined)	202 to 204 °C
CN1C(=O)C(c2ccccc2)(C2CCNCC2)N=C1N (centres undefined)	269 to 271 °C
CS(=O)(=O)c1cc(C(=O)O)c(NCc2ccccc2)cc1Cl	179 °C
CS(=O)(=O)c1cc(Cl)cc(O)c1O	142 to 145 °C
O=C1OC(=O)c2c3ccccc3cc3cccc1c23	289 to 290 °C
CN(C(=O)c1cc2ccccc2[nH]1)C1N=C(c2ccccc2)c2ccccc2NC1=O (racemic)	287 to 288 °C
CC1CCN(c2cc(F)cc(C(=O)Nc3ccc(Oc4ccnc(N5CCOCC5)n4)c4ccccc34)c2)CC1	88 to 89 °C
O=C(O)c1cccc(Oc2ncccc2OCCCc2ccncc2)c1	208 to 209 °C
CCCCc1nc2c(N)nc(C)c(C)c2n1CC(C)(C)NS(C)(=O)=O	90 to 92 °C
CC(C)NC(=O)C[C@@H]1CCCNc2ccccc21	91 to 92 °C
COc1ccc(S(=O)(=O)NC(C)c2ccccc2-c2ccc(F)cc2F)cc1 (centres undefined)	154 to 155 °C
